Reference: ChEMBL document CHEMBL1201862, “PubChem BioAssay data set” (2004)
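Five compound concentrations were applied to cells in 96-well plates for 48 hours; endpoints were derived by simple linear interpolation of the resulting dose-response curve. Abbreviation: GI50, concentration required for 50% inhibition of growth.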 Activity calls are given as the source filed them. Rule as the data show it: active = GI50 up to about 1.1 µM and inactive = higher.

Key:
Experiment in all cases: DTP human tumour cell line panel, 48 h
[1] = test system: CAKI-1
[2] = test system: UO-31
[3] = test system: UACC-62
[4] = test system: U-251
[5] = test system: 786-0
[6] = test system: RPMI-8226
[7] = test system: PC-3
[8] = test system: SK-MEL-2
[9] = test system: DU-145
[10] = test system: K562
[11] = test system: OVCAR-3
[12] = test system: SF-268
[13] = test system: ACHN
[14] = test system: HOP-92
[15] = test system: NCI-H226
[16] = test system: SK-OV-3
[17] = test system: NCI/ADR-RES
[18] = test system: IGROV-1
[19] = test system: HCC 2998
[20] = test system: SR

Measured: GI50

CCC1(N)C(=O)OCc2c1cc1n(c2=O)Cc2cc3ccccc3nc2-1 (centres undefined)
inactive: [1] 2.84 µM | [2] 3.42 µM | [3] 2.75 µM | [4] 6.73 µM | [5] 3.74 µM | [6] 32.7 µM | [7] 15.2 µM | [8] > 85.7 µM | [9] 2.65 µM | [10] 18.9 µM | [11] > 55.7 µM | [12] 5.7 µM | [13] 3.73 µM | [14] 35.4 µM | [15] 6.08 µM | [16] > 100 µM | [17] 5.02 µM | [18] 6.56 µM | [19] 38.4 µM

N=C(N)SCC(=O)O
inactive: [1] > 100 µM | [2] > 100 µM | [3] > 100 µM | [4] > 100 µM | [5] > 100 µM | [6] > 100 µM | [7] > 100 µM | [8] > 100 µM | [9] > 100 µM | [10] 5.68 µM | [11] > 100 µM | [12] > 100 µM | [13] > 100 µM | [14] > 100 µM | [15] > 100 µM | [16] > 100 µM | [17] > 100 µM | [18] > 100 µM | [19] > 100 µM

CN(C)CCCN1c2ccc([N+](=O)[O-])cc2CCc2cc([N+](=O)[O-])ccc21
inactive: [1] 14.5 µM | [2] 12 µM | [3] 14.7 µM | [4] 13.7 µM | [5] 13.9 µM | [6] 15.5 µM | [7] 13.6 µM | [8] 17.5 µM | [9] 17.4 µM | [10] 13.1 µM | [11] 16 µM | [12] 14.5 µM | [13] 15.6 µM | [14] 5.41 µM | [15] 15.7 µM | [16] 14.9 µM | [17] 16.4 µM | [18] 14.6 µM | [19] 11.9 µM

C/C(=N\NS(=O)(=O)c1ccc(C)cc1)P(=O)(O)O
inactive: [1] > 100 µM | [2] > 100 µM | [3] > 100 µM | [4] > 100 µM | [5] > 100 µM | [6] > 100 µM | [7] > 100 µM | [8] > 100 µM | [9] > 100 µM | [10] > 100 µM | [11] > 100 µM | [12] > 100 µM | [13] > 100 µM | [14] > 100 µM | [15] > 100 µM | [16] > 100 µM | [17] > 100 µM | [18] > 100 µM

CC(C)C(N)C(=O)NC(CCC(=O)NCCCCC(N)C(=O)NCCCNc1ccc([N+](=O)[O-])c2[nH]c3ccccc3c(=O)c12)C(N)=O (centres undefined)
inactive: [1] > 100 µM | [2] 24.4 µM | [3] 25.2 µM | [4] 26.7 µM | [5] 35.8 µM | [6] 33.7 µM | [7] 56.6 µM | [8] 91.6 µM | [9] > 100 µM | [10] > 100 µM | [11] > 100 µM | [12] 58.7 µM | [13] 40.6 µM | [14] 24.4 µM | [15] 50.9 µM | [16] 44.3 µM | [17] 43 µM | [19] 40.2 µM

C[N+](C)(CCNC(=O)c1cccc2cc3ccccc3nc12)Cc1ccc([N+](=O)[O-])s1
inactive: [1] 14.9 µM | [2] > 25 µM | [3] > 25 µM | [4] > 25 µM | [5] > 25 µM | [6] > 25 µM | [7] > 25 µM | [8] > 25 µM | [9] > 25 µM | [10] > 25 µM | [11] > 25 µM | [12] > 25 µM | [13] > 25 µM | [14] > 25 µM | [15] > 25 µM | [16] > 25 µM | [17] > 25 µM | [18] > 25 µM

Cc1ccc(/C=C2/N/C(=N\N=C/c3ccccc3)NC2=O)cc1
inactive: [1] 38.5 µM | [2] 18.4 µM | [4] 26 µM | [5] 20.3 µM | [6] 16.2 µM | [7] 48.5 µM | [20] 30.6 µM | [8] 39.4 µM | [9] 55.1 µM | [10] 34.3 µM | [11] 44.8 µM | [12] 77.1 µM | [13] 17.3 µM | [15] > 100 µM | [16] 40.3 µM | [17] 33.3 µM | [18] 51.6 µM | [19] 28.9 µM
